The values below come from patent US20150291514A1, “N-Aminosulfonyl Benzamides” (Pfizer Limited, priority 2012, published 2015).

Where a name gives a salt, the structure may show the parent alone.

The target in this experiment is T1, Nav1.7 (or SCN9A) channel (Homo sapiens, UniProt Q15858).
T1 construct: expressed in transfected cells
T1 sequence (Q15858 whole entry): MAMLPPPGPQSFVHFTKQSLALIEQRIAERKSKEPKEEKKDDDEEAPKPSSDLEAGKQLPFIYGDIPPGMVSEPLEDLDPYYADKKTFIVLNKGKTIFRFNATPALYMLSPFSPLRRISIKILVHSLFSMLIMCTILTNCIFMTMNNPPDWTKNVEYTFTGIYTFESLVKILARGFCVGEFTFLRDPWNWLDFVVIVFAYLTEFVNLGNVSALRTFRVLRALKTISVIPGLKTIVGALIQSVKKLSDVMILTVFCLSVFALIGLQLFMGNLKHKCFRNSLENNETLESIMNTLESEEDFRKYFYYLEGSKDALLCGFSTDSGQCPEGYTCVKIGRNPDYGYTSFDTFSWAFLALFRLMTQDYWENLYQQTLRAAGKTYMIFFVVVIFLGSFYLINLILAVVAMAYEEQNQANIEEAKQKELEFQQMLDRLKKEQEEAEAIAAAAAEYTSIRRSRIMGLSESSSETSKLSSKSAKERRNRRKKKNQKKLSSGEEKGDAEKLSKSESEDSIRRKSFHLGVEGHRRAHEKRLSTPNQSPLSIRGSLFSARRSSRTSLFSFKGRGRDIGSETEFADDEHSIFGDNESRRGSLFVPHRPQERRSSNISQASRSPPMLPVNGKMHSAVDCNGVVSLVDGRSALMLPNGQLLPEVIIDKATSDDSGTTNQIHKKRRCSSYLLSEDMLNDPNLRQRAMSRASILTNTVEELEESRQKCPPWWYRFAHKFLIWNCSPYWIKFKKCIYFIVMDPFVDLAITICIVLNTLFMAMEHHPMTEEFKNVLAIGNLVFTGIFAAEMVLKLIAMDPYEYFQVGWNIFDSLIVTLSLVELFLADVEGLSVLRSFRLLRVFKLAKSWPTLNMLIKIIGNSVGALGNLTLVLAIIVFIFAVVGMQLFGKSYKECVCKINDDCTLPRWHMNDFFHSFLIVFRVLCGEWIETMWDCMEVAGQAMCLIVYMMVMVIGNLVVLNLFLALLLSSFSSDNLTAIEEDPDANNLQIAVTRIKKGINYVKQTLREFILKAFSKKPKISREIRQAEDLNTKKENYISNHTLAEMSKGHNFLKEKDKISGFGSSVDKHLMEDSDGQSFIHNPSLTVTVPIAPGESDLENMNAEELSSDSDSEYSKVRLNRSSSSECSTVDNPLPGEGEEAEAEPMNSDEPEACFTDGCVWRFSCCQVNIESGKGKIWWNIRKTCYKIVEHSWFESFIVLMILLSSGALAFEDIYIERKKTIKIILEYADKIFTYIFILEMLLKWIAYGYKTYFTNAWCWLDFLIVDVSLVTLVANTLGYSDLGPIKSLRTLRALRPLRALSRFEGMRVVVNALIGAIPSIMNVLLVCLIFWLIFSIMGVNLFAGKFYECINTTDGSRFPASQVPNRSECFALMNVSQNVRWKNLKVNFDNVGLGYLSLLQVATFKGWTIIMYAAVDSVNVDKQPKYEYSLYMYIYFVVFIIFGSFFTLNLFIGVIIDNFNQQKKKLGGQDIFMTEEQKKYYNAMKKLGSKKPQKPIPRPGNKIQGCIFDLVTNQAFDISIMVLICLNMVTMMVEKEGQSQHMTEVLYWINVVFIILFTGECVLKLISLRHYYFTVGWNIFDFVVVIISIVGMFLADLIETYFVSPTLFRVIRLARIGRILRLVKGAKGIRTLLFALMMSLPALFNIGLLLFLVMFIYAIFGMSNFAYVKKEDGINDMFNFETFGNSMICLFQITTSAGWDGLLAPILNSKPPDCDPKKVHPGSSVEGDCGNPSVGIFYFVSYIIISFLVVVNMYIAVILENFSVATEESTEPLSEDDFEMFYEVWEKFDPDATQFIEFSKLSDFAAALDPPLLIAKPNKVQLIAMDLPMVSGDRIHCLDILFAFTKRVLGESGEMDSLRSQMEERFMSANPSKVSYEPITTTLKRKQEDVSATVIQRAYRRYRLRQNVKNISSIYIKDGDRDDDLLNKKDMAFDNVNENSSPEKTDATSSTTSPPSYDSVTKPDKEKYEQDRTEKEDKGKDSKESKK
Put plainly: Nav1.7 (hSCN9A) PatchXpress electrophysiology assay. It counts as cell-based. The following applies: estimated IC50 from single point electrophysiology data; PatchXpress platform; HEK cells expressing hSCN9A, held at V1/2 of inactivation; read-out: Nav1.7 EIC50. On the procedure: The ability of the compounds of formula (I) to block the Nav1.7 (or SCN9A) channel were measured using the assay described below.
Human Embryonic Kidney (HEK) cells were transfected with an hSCN9A construct using lipofectamine reagent (Invitrogen), using standard techniques. Cells stably expressing the hSCN9A constructs were identified by their resistance to G-418 (400 μg/ml). Clones were screened for expression using the whole-cell voltage-clamp technique.
HEK cells stably transfected with hSCN9A were maintained in DMEM medium supplemented with 10% heat-inactivated fetal bovine serum and 400 μg/ml G-418 in an incubator at 37° C. with a humidified atmosphere of 10% CO2. For HTS, cells were harvested from flasks by trypsinization and replated in an appropriate multi-well plate (typically 96 or 384 wells/plate) such that confluence would be achieved within 24 hours of plating. For electrophysiological studies, cells were removed from the culture flask by brief trypsinization and re-plated at low density onto glass cover slips. Cells were typically used for electrophysiological experiments within 24 to 72 hours after plating.
Cover slips containing HEK cells expressing hSCN9A were placed in a bath on the stage of an inverted microscope and perfused (approximately 1 ml/minutes) with extracellular solution of the following composition: 138 mM NaCl, 2 mM CaCl2, 5.4 mM KCl, 1mM MgCl2, 10 mM glucose, and 10 mM HEPES, pH 7.4, with NaOH. […] The osmolarity of the extracellular and intracellular solutions was 300 mOsm/kg and 295 mOsm/kg, respectively. All recordings were made at room temperature (22-24° C.) using AXOPATCH 200B amplifiers and PCLAMP software (Axon Instruments, Burlingame, Calif.).
hSCN9A currents in HEK cells were measured using the whole-cell configuration of the patch-clamp technique (Hamill et al., 1981). Uncompensated series resistance was typically 2 to 5 mega ohms and >85% series resistance compensation was routinely achieved. As a result, voltage errors were negligible and no correction was applied. Current records were acquired at 20 to 50 KHz and filtered at 5 to 10 KHz.
HEK cells stably transfected with hSCN9A were viewed under Hoffman contrast optics and placed in front of an array of flow pipes emitting either control or compound-containing extracellular solutions. All compounds were dissolved in dimethyl sulfoxide to make 10 mM stock solutions, which were then diluted into extracellular solution to attain the final concentrations desired. […] The voltage-dependence of inactivation was determined by applying a series of depolarizing prepulses (8 sec long in 10 mV increments) from a negative holding potential. The voltage was then immediately stepped to 0 mV to assess the magnitude of the sodium current. Currents elicited at 0 mV were plotted as a function of prepulse potential to allow estimation of the voltage at which 50% of the channels were inactivated (midpoint of inactivation or V1/2). Compounds were tested for their ability to inhibit hSCN9A sodium channels by activating the channel with a 20 msec voltage step to 0 mV following an 8 second conditioning prepulse to the empirically determined V1/2. Compound effect (% inhibition) was determined by difference in current amplitude before and after application of test compounds. For ease of comparison, “estimated IC-50” (EIC50) values were calculated from single point electrophysiology data by the following equation, (tested concentration, uM)×(100-% inhibition/% inhibition). Inhibition values <20% and >80% were excluded from the calculation.
Electrophysiological assays were conducted with PatchXpress 7000 hardware and associated software (Molecular Devices Corp). All assay buffers and solutions were identical to those used in conventional whole-cell voltage clamp experiments described above. hSCN9A cells were grown as above to 50%-80% confluency and harvested by trypsinization. […]
Take `C[C@@H]1CCCN1c1ncc(Oc2cc(F)c(C(=O)NS(=O)(=O)N(C)C)cc2F)cc1Cl` [Example 29, 4-({5-chloro-6-[(2R)-2-methylpyrrolidin-1-yl]pyridine-3-yl}oxy)-N-[(dimethylamino)sulfonyl]-2,5-dfluorobenzamide formate salt]: the IC50 is 240 nM.
The result for `CC(C)Oc1ncc(Oc2cc(F)c(C(=O)NS(=O)(=O)N(C)C)cc2F)cc1Cl` [Example 30, 4-[(5-chloro-6-isopropoxypyridin-3-yl)oxy]-N-[(dimethylamino)sulfonyl]-2,5-difluorobenzamide] reads 470 nM; that for `CNS(=O)(=O)NC(=O)c1cc(F)c(Oc2cnc(OC(C)C)c(Cl)c2)cc1F` [Example 31, 4-[(5-chloro-6-isopropoxypyridin-3-yl)oxy]-N-[(methylamino)sulfonyl]-2,5-difluorobenzamide], 6600 nM.
The result for `CN(C)S(=O)(=O)NC(=O)c1cc(F)c(Oc2cnc(OCC3CC3)c(Cl)c2)cc1F` [Example 32, 4-[(5-chloro-6-(cyclopropylmethoxy)pyridin-3-yl)oxy]-N-[(dimethylamino)sulfonyl]-2,5-difluorobenzamide] reads 290 nM; that for `CN(C)S(=O)(=O)NC(=O)c1cc(F)c(Oc2cnc(OCC(C)(C)F)c(Cl)c2)cc1F` [Example 33, 4-[(5-chloro-6-(2-fluoro-2-methylpropoxy)pyridin-3-yl)oxy]-N-[(dimethylamino)sulfonyl]-2,5-difluorobenzamide diethylamine salt], 500 nM; that for `CN(C)S(=O)(=O)NC(=O)c1cc(F)c(Oc2cnc(OCC(F)(F)F)c(Cl)c2)cc1F` [Example 34, 4-[(5-chloro-6-(2,2,2-trifluoroethoxy)pyridin-3-yl)oxy]-N-[(dimethylamino)sulfonyl]-2,5-difluorobenzamide diethylamine salt], 590 nM.
The result for `CN(C)S(=O)(=O)NC(=O)c1cc(F)c(Oc2cc(C(F)(F)F)c(Cl)cn2)cc1F` [Example 35, 4-((5-chloro-4-(trifluoromethyl)pyridin-2-yl)oxy)-N-(N,N-dimethylsulfamoyl)-2,5-difluorobenzamide] reads 2500 nM; that for `CC(Oc1ncc(Oc2cc(F)c(C(=O)NS(=O)(=O)N(C)C)cc2F)cc1Cl)C(F)(F)F` (stereo not drawn) [Example 36, 4-((5-chloro-6-((1,1,1-trifluoropropan-2-yl)oxy)pyridin-3-yl)oxy)-N-[(dimethylamino)sulfonyl]-2,5-difluorobenzamide], 660 nM; that for `CN(C)S(=O)(=O)NC(=O)c1cc(F)c(Oc2cnc(OC(C(F)(F)F)C(F)(F)F)c(Cl)c2)cc1F` [Example 37], 470 nM.
Consider `CC(C)Oc1ncc(Oc2cc(F)c(C(=O)NS(=O)(=O)N3CCC3)cc2F)cc1Cl` [Example 38, N-(azetidin-1-ylsulfonyl)-4-(5-chloro-6-isopropoxypyridin-3-yl)oxy)-2,5-difluorobenzamide diethylamine salt], for which the IC50 was 180 nM.
The result for `O=C(NS(=O)(=O)N1CCC1)c1cc(Cl)c(Oc2cnc(OCC(F)(F)C(F)F)c(Cl)c2)cc1F` [Example 41, N-(azetidin-1-ylsulfonyl)-5-chloro-4-{[5-chloro-6-(2,2,3,3-tetrafluoropropoxy)pyridin-3-yl]oxy}-2-fluorobenzamide] reads 100 nM; that for `O=C(NS(=O)(=O)N1CCC1)c1cc(Cl)c(Oc2ccc(Cl)c(Cl)c2)cc1F` [Example 42, N-(azetidin-1-ylsulfonyl)-5-chloro-4-(3,4-dichlorophenoxy)-2-fluorobenzamide], 100 nM.
